In patent publication US7790763B2, “Substituted phenyl methanone derivatives” (Hoffmann-La Roche Inc., priority 2005, dated 2010) one finds IC50 data, which are given here for eleven compounds.

In this experiment the target is T1, mGlyT-1b (Mus musculus, UniProt P28571).
T1 construct: host or cells: Flp-in-CHO cells, stably transfected
T1 sequence (P28571 1-651 isoform P28571-2): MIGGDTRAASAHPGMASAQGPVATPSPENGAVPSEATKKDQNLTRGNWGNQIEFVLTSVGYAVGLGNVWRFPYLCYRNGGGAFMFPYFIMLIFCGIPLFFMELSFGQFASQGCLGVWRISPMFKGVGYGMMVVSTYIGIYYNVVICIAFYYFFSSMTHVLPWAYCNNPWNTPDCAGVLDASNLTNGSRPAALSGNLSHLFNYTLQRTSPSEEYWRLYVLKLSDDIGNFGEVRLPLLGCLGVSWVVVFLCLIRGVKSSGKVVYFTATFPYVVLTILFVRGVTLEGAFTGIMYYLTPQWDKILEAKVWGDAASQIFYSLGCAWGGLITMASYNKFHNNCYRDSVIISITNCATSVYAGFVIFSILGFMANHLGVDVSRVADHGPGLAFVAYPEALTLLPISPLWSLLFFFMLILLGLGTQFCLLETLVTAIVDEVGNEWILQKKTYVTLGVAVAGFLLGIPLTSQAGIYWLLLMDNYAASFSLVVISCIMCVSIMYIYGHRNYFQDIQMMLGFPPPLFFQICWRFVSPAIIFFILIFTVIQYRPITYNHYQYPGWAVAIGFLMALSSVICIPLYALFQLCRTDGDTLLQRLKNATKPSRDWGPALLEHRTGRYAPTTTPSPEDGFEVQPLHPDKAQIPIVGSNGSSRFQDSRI
Kind of experiment: Glycine uptake inhibition assay (mGlyT-1b). The class given is cell-based. As to conditions: [3H]-glycine uptake, Flp-in-CHO cells transfected with mGlyT-1b cDNA, 20 min preincubation at 22° C.; read-out: IC50 (μM) at GlyT-1. The protocol: DMEM complete medium: Nutrient mixture F-12 (Gibco Life-technologies), fetal bovine serum (FBS) 5%, (Gibco life technologies), Penicillin/Streptomycin1% (Gibco life technologies), Hygromycin 0.6 mg/ml (Gibco life technologies), Glutamine 1 mM Gibco life technologies)
Uptake buffer (UB): 150 mM NaCl, 10 mM Hepes-Tris, pH 7.4, 1 mM CaCl2, 2.5 mM KCl, 2.5 mM MgSO4, 10 mM (+) D-glucose. Flp-in™-CHO (Invitrogen Cat n° R758-07)cells stably transfected with mGlyT1b cDNA.
Glycine Uptake Inhibition Assay (mGlyT-1b)
On day 1 mammalian cells, (Flp-in™-CHO), transfected with mGlyT-1b cDNA, were plated at the density of 40,000 cells/well in complete F-12 medium, without hygromycin in 96-well culture plates. On day 2, the medium was aspirated, and the cells were washed twice with uptake buffer (UB). The cells were then incubated for 20 min at 22° C. with either (i) no potential competitor, (ii) 10 mM non-radioactive glycine, (iii) a concentration of a potential inhibitor. A range of concentrations of the potential inhibitor was used to generate data for calculating the concentration of inhibitor resulting in 50% of the effect (e.g. IC50, the concentration of the competitor inhibiting glycine uptake of 50%). A solution was then immediately added containing [^3H]-glycine 60 nM (11-16 Ci/mmol) and 25 μM non-radioactive glycine. The plates were incubated with gentle shaking, and the reaction was stopped by aspiration of the mixture and washing (three times) with ice-cold UB. The cells were lysed with scintillation liquid, shaken 3 hours and the radioactivity in the cells was counted using a scintillation counter.

For the compound `CC(C)Oc1ccc(S(C)(=O)=O)cc1C(=O)N1CCC(Oc2ccc(C(F)(F)F)cc2)C1` (racemic) [Example 13, Rac-(2-Isopropoxy-5-methanesulfonyl-phenyl)-[3-(4-trifluoromethyl-phenoxy)-pyrrolidin-1-yl]-methanone], the IC50 – broadly, the concentration at which inhibition is half-maximal – was 0.55 µM.

As for `CC(C)Oc1ccc(S(C)(=O)=O)cc1C(=O)N1CCC(Oc2ccc3ccccc3c2)C1` (racemic) [Example 18, Rac-(2-Isopropoxy-5-methanesulfonyl-phenyl)-[3-(naphthalen-2-yloxy)-pyrrolidin-1-yl]-methanone], the half-maximal inhibitory concentration (IC50) worked out at 0.87 µM. For the compound `CC(C)Oc1ccc(S(C)(=O)=O)cc1C(=O)N1CCC(Oc2ccc([N+](=O)[O-])cc2)CC1` [Example 4, (2-Isopropoxy-5-methanesulfonyl-phenyl)-[4-(4-nitro-phenoxy)-piperidin-1-yl]-methanone], the IC50 amounted to 1 µM. Regarding `CC(=O)c1ccc(OC2CCN(C(=O)c3cc(S(C)(=O)=O)ccc3OC(C)C)CC2)c(F)c1` [Example 5, 1-{3-Fluoro-4-[1-(2-isopropoxy-5-methanesulfonyl-benzoyl)-piperidin-4-yloxy]-phenyl}-ethanone], the IC50 came to 0.93 µM. In the case of `CC(C)Oc1ccc(S(C)(=O)=O)cc1C(=O)N1CCC(Oc2cc(C(F)(F)F)ccc2F)CC1` [Example 8, [4-(2-Fluoro-5-trifluoromethyl-phenoxy)-piperidin-1-yl]-(2-isopropoxy-5-methanesulfonyl-phenyl)-methanone] it was 0.63 µM. In the case of `CC(C)Oc1ccc(S(C)(=O)=O)cc1C(=O)N1CC(Oc2ccc(C(F)(F)F)cc2)C1` [Example 21, (2-Isopropoxy-5-methanesulfonyl-phenyl)-[3-(4-trifluoromethyl-phenoxy)-azetidin-1-yl]-methanone] it was 0.87 µM; in that of `CC(C)Oc1ccc(S(C)(=O)=O)cc1C(=O)N1CC(Oc2cccc(C(F)(F)F)c2)C1` [Example 22, (2-Isopropoxy-5-methanesulfonyl-phenyl)-[3-(3-trifluoromethyl-phenoxy)-azetidin-1-yl]-methanone], 0.7 µM. In the case of `C[C@H](Oc1ccc(S(C)(=O)=O)cc1C(=O)N1CC(Oc2ccc(C(F)(F)F)cc2)C1)C(F)(F)F` [Example 23, [5-Methanesulfonyl-2-((S)-2,2,2-trifluoro-1-methyl-ethoxy)-phenyl]-[3-(4-trifluoromethyl-phenoxy)-azetidin-1-yl]-methanone] it was 0.39 µM. Take `C[C@@H](Oc1ccc(S(C)(=O)=O)cc1C(=O)N1CC(Oc2ccc(C(F)(F)F)cc2)C1)C(F)(F)F` [Example 24, [5-Methanesulfonyl-2-((R)-2,2,2-trifluoro-1-methyl-ethoxy)-phenyl]-[3-(4-trifluoromethyl-phenoxy)-azetidin-1-yl]-methanone]: the IC50 is 0.84 µM. Then `CS(=O)(=O)c1ccc(N2CCOCC2)c(C(=O)N2CCC(Oc3ccc(C(F)(F)F)cc3)C2)c1` (centres unmarked) [Example 25, (5-Methanesulfonyl-2-morpholin-4-yl-phenyl)-[3-(4-trifluoromethyl-phenoxy)-pyrrolidin-1-yl]-methanone], with 0.078 µM.

For `CNS(=O)(=O)c1ccc(OC2CCCC2)c(C(=O)N2CCC(Oc3ccc(C(F)(F)F)cc3)C2)c1` (centres unmarked) [Example 26, 4-Cyclopentyloxy-N-methyl-3-[3-(4-trifluoromethyl-phenoxy)-pyrrolidine-1-carbonyl]-benzenesulfonamide], the IC50 was determined as 0.109 µM.
